According to patent EP4692114A1, “CALCITONIN ANALOGUE, AND DERIVATIVE THEREOF AND USE THEREOF” (Hangzhou Sciwind Biosciences Co., Ltd., priority 2023, dated 2024):
pEC50: −log10 of the molar value. *1 amine or outer side, *2 acyl side, *3 side chain or, on linkers, in order; H or OH if unused. Where a SMILES comes first, the peptide text is derived from it. The star is where a group is joined. C20 diacid = O=C(O)CCCCCCCCCCCCCCCCCCC(=O)*; γGlu = O=C(O)[C@H](CCC(=O)[*:2])N[*:1]

What was measured:
[1] = background statement; cited from earlier work
human amylin receptors = target: T1, human amylin receptors (Homo sapiens, UniProt O60896+P30988); assay: Luciferase assay of amylin (amylin receptor/CRE-luc cell line); assay type: cell-based; conditions: stably transfected amylin receptor/CRE-luc CHO cells (CHO-K1/Gal5/AMY3), 24 hours incubation, luciferase readout;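 also: agonist potency from luminescence of cAMP response element-driven luciferase, EC50 derived from a standard curve of signal versus compound concentration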
T1 sequence (P30988 25-474): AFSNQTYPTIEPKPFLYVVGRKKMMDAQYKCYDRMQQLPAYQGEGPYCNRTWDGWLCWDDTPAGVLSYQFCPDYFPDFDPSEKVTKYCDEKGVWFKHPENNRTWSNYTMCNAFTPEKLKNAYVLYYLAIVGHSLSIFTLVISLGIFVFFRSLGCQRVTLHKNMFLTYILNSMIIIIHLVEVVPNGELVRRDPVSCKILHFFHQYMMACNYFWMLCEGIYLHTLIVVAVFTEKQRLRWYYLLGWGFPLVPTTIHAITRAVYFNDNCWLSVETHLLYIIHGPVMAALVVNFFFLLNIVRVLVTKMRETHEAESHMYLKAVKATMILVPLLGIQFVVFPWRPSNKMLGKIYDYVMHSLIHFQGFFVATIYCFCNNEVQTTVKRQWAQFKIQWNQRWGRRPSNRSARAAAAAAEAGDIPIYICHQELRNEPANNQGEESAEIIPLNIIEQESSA
T1 sequence (O60896 24-148 partner): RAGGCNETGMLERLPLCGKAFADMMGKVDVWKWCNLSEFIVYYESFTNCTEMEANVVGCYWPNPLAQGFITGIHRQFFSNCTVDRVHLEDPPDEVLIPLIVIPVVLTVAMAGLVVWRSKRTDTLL
From the text: The objective of this assay is to test the activity or potency of calcitonin analogues or derivatives on human amylin receptors in vitro using a luciferase assay.
Using the standard protocol, CHO-K1/Gal5/AMY3 cells (purchased from GenScript, with the calcitonin receptor and the receptor activity modifying peptide (RAMP) constructed already) were transfected with a plasmid containing a luciferase expression cassette driven by multiple copies of cAMP response elements (CREs). The cells were cultured in an F12 medium containing 200 ug/mL Zeocin, 2 ug/mL puromycin, 100 ug/mL hygromycin, and 400 ug/mL G418 to afford a stably transfected amylin receptor/CRE-luc cell line.
To each well of a white 96-well plate was added 50 µL of the tested sample solution at a respective concentration.
The stably transfected amylin receptor/CRE-luc CHO cells were resuspended in the growth medium at a certain density, and 50 µL of the cell suspension was added at a density of about 20000 cells per well to the white 96-well plate containing the tested sample solution. After incubation of 24 hours at 37°C and 5% CO2, 100 µL of a Luciferase substrate was added to each well, incubated for 3 minutes, and finally was tested for luminescence on SpectraMax L (Molecular Devices) with the software SoftMax Pro 7.0.3 GxP. A standard curve was plotted using the fluorescent intensities for calculation of EC50.

[2] = Heat accelerated stability assay for compatibility testing (M8 with M51); assay type: physicochemical; conditions: M8 1 mg/ml with M51 1 mg/ml, pH about 7.4, one-month heat accelerated assay, without and with excipients (phenol, 1,2-dihydroxypropane)
Experimental: The calcitonin analogue M8 (1 mg/ml), the GLP-1 receptor agonist M51 (1 mg/ml), and sodium dihydrogen phosphate (1.42 mg/ml) were mixed and dissolved in ultrapure water, and 5.5 mg/ml phenol and 14 mg/ml 1,2-dihydroxypropane were further added for the testing group with excipients. After pH was adjusted to about 7.4 with hydrochloric acid/sodium hydroxide, accelerated stability assays were performed according to the method of Example 3. […] Thus, they had the potential to be developed as a co-formulation.

[3] = Study of weight change and food consumption in rats; assay type: in vivo, SD (Sprague Dawley) rats; conditions: SD rats, subcutaneous, 10 nmol/kg
From the text: SD (Sprague Dawley) rats weighing 200-250 g were used for this study. The rats were received at least 10-14 days before the study began such that they could accommodate to the experimental environment. After arrival, they were exposed to a reversed light/dark cycle (i.e., lights switched off in daytime and on in nighttime) for two weeks and were individually housed for the first week so as to ensure high data accuracy and test sensitivity. Throughout the acclimation and experiment period, the rats had free access to food and water. 5-8 rats were assigned to each testing group for the derivatives and were subcutaneously administered the derivatives at a dose of 10 nmol/kg or a vehicle, and the dosing timepoint was recorded for each group. After dosing, the rats were put back into cages where they were housed and could have access to food and water. Food consumption and weight change of the rats were recorded online or manually every 24 hours.

[4] = Heat accelerated stability assay under a neutral condition; assay type: physicochemical; conditions: pH about 7.4, 40°C
How it was run: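 Peptide (1 mg/mL) with sodium dihydrogen phosphate (1.42 mg/mL) in water, pH ~7.4, was sterile-filtered and stored at 40 °C, sampled on days 7 and 26. After centrifugation, concentration and purity (target/total peak area) were measured by reversed-phase HPLC at 214 and 280 nm, water/0.05% TFA to acetonitrile gradient, 25 °C column.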

## CC(C)C[C@H](NC(=O)[C@H](CCCCN)NC(=O)CNC(=O)[C@H](CC(C)C)NC(=O)[C@@H](NC(=O)[C@@H]1CSSC[C@H](N)C(=O)N[C@@H](CO)C(=O)N[C@@H](CC(N)=O)C(=O)N[C@@H](CC(C)C)C(=O)N[C@@H](CO)C(=O)N[C@@H]([C@@H](C)O)C(=O)N1)C(C)C)C(=O)N[C@@H](CO)C(=O)N[C@@H](CCC(N)=O)C(=O)N[C@@H](CCC(=O)O)C(=O)N[C@@H](CC(C)C)C(=O)N[C@@H](Cc1c[nH]cn1)C(=O)N[C@@H](CCCCN)C(=O)N[C@@H](CC(C)C)C(=O)N[C@@H](CCC(N)=O)C(=O)N[C@H](C(=O)N[C@@H](Cc1ccc(O)cc1)C(=O)N1CCC[C@H]1C(=O)N[C@@H](CCCNC(=N)N)C(=O)N[C@H](C(=O)N[C@@H](CC(N)=O)C(=O)N[C@H](C(=O)NCC(=O)N[C@@H](CO)C(=O)NCC(=O)N[C@H](C(=O)N1CCC[C@H]1C(N)=O)[C@@H](C)O)[C@@H](C)O)[C@@H](C)O)[C@@H](C)O [D2, salmon calcitonin]
[1]
  half-life: less than two hours

## CC(C)C[C@H](NC(=O)[C@H](CCCNC(=N)N)NC(=O)CNC(=O)[C@H](CC(C)C)NC(=O)[C@@H](NC(=O)[C@H](C)NC(=O)[C@@H](NC(=O)[C@H](CO)NC(=O)[C@H](CC(C)C)NC(=O)[C@H](CCC(N)=O)NC(=O)[C@H](CO)NC(=O)[C@H](C)NC(=O)CC[C@H](NC(=O)CCCCCCCCCCCCCCCCCCC(=O)O)C(=O)O)[C@@H](C)O)C(C)C)C(=O)N[C@@H](CO)C(=O)N[C@@H](CC(=O)O)C(=O)N[C@@H](CCC(=O)O)C(=O)N[C@@H](CC(C)C)C(=O)N[C@@H](Cc1c[nH]cn1)C(=O)N[C@@H](CCCNC(=N)N)C(=O)N[C@@H](CC(C)C)C(=O)N[C@@H](CCC(N)=O)C(=O)N[C@@H](CC(=O)O)C(=O)N[C@@H](Cc1ccc(O)cc1)C(=O)N1CCC[C@H]1C(=O)N[C@@H](CCCNC(=N)N)C(=O)N[C@H](C(=O)N[C@@H](CC(=O)O)C(=O)N[C@H](C(=O)NCC(=O)N[C@@H](CO)C(=O)NCC(=O)N[C@@H](CO)C(=O)N1CCC[C@H]1C(N)=O)C(C)C)[C@@H](C)O [M8] ({C20 diacid-γGlu}-ASQLSTAVLGRLSDELHRLQDYPRTDVGSGSP-NH2)
Human amylin receptors
  pEC50: 10.77
[2]
  Change in the spectra of reversed phase chromatography (compatibility): only a little change
[3]; accumulated food intake recorded every 24 hours (FIGs. 7 and 9)
  Effect on reducing food intake: prominent effect
[3]; recorded every 24 hours (FIGs. 6 and 8)
  Effect on reducing body weight: prominent effect
[4]; 1 mg/mL, phosphate, 0d
  Changes in characteristics or properties, 0d: Clear
[4]; 1 mg/mL, phosphate, 7d
  Changes in characteristics or properties, 7d: Clear
[4]; 1 mg/mL, phosphate, Day 26
  Characteristics or properties on Day 26: clear solution
[4]; Table 8, purity change, 7d
  Reversed phase chromatography 7d change: No change (a decrease of less than 1% from the initial value to the detected content is denoted as "no change")
[4]; Table 8, purity change, 26d
  Reversed phase chromatography 26d change: -0.12%
[4]; Day 26 vs Day 0
  Concentration change on Day 26 as compared to Day 0: less than 2%
[4]; purity from reversed phase chromatography-214 nm, Day 7 vs Day 0
  Purity Change% (7d-0d): No change (a decrease of less than 1% from the initial value to the detected content is denoted as "no change")
